The structures appear in SMILES notation. “And” between values parts separate entries of the source, which are not always exact repeats. Equal entries are not always repeated. Results filed as inconclusive are left out.

In the experiment the test system is CD8F1 mice, subcutaneous mammary adenocarcinoma, T/C%. The experiment is described as follows: NCI In Vivo Anticancer Drug Screen. Data for tumor model Mammary Adenocarcinoma CD8F1 (subcutaneous) in CD8F1. To be noted: higher = larger tumour. Summed up:
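Mice carrying transplanted tumors received test compound, and survival or tumor size was recorded. Each value is the treated-group measurement divided by the corresponding measurement in vehicle-dosed controls.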

Where [1] appears, read: endpoint: median tumor weight change, dose: 125.0 mg/kg/injection, schedule: Q01DX001 (ip), vehicle: saline with Tween-80.
The mark [2] stands for this setting: endpoint: median tumor weight change, dose: 250.0 mg/kg/injection, schedule: Q01DX001 (ip), vehicle: saline with Tween-80.
The mark [3] stands for this setting: endpoint: median tumor weight change, dose: 500.0 mg/kg/injection, schedule: Q01DX001 (ip), vehicle: saline with Tween-80.
[4] abbreviates: endpoint: median tumor weight (est.), dose: 6.25 mg/kg/injection, schedule: Q07DX005 (ip), vehicle: saline with Tween-80.
The mark [5] stands for this setting: endpoint: median tumor weight (est.), dose: 12.5 mg/kg/injection, schedule: Q07DX005 (ip), vehicle: saline with Tween-80.
The mark [6] stands for this setting: endpoint: median tumor weight (est.), dose: 50.0 mg/kg/injection, schedule: Q07DX005 (ip), vehicle: saline with Tween-80.
The mark [7] stands for this setting: endpoint: median tumor weight (est.), dose: 25.0 mg/kg/injection, schedule: Q07DX005 (ip), vehicle: saline with Tween-80.
[8] abbreviates: endpoint: median tumor weight (est.), dose: 100.0 mg/kg/injection, schedule: Q07DX005 (ip), vehicle: saline with Tween-80.
Setting [9] is: endpoint: median tumor weight (est.), dose: 200.0 mg/kg/injection, schedule: Q07DX005 (ip), vehicle: saline with Tween-80.
Where [10] appears, read: endpoint: median tumor weight (est.), dose: 400.0 mg/kg/injection, schedule: Q07DX005 (ip), vehicle: saline with Tween-80.

Take `Nc1ccc(S(=O)(=O)c2ccc(N)cc2)cc1`: the T/C is 106 % of control (endpoint: median tumor weight change, dose: 31.25 mg/kg/injection, schedule: Q01DX001 (ip), vehicle: saline with Tween-80); 92 % of control (endpoint: median tumor weight change, dose: 62.5 mg/kg/injection, schedule: Q01DX001 (ip), vehicle: saline with Tween-80); 87 % of control under setting [1]; 88 % of control under setting [2]; 80 % of control under setting [3].
As to `COc1cc(NCc2ccc3nc(N)nc(N)c3c2C)cc(OC)c1OC`, the T/C by setting is: (endpoint: median tumor weight (est.), dose: 1.88 mg/kg/injection, schedule: Q07DX005 (ip), vehicle: sodium bicarbonate) 82 % of control; (endpoint: median tumor weight (est.), dose: 3.75 mg/kg/injection, schedule: Q07DX005 (ip), vehicle: sodium bicarbonate) 63 % of control and 82 % of control; (endpoint: median tumor weight (est.), dose: 7.5 mg/kg/injection, schedule: Q07DX005 (ip), vehicle: sodium bicarbonate) 114 % of control; (endpoint: median tumor weight (est.), dose: 35.0 mg/kg/injection, schedule: Q04DX007 (ip), vehicle: water) 100 % of control; (endpoint: median tumor weight (est.), dose: 35.0 mg/kg/injection, schedule: Q07DX005 (ip), vehicle: water) 87 % of control; (endpoint: median tumor weight (est.), dose: 41.5 mg/kg/injection, schedule: Q04DX007 (ip), vehicle: water) 59 % of control. Also, the T/C reads like this: (endpoint: median tumor weight (est.), dose: 44.0 mg/kg/injection, schedule: Q07DX005 (ip), vehicle: water) 44 % of control; (endpoint: median tumor weight (est.), dose: 46.0 mg/kg/injection, schedule: Q07DX005 (ip), vehicle: water) 26 % of control; (endpoint: median tumor weight (est.), dose: 47.4 mg/kg/injection, schedule: Q04DX007 (ip), vehicle: water) 29 % of control; (endpoint: median tumor weight (est.), dose: 53.0 mg/kg/injection, schedule: Q04DX007 (ip), vehicle: water) 66 % of control; (endpoint: median tumor weight (est.), dose: 53.0 mg/kg/injection, schedule: Q07DX005 (ip), vehicle: saline) 5 % of control; (endpoint: median tumor weight (est.), dose: 53.0 mg/kg/injection, schedule: Q07DX005 (ip), vehicle: suspension in saline) 67 % of control. Besides, the T/C is 29 % of control (endpoint: median tumor weight (est.), dose: 62.2 mg/kg/injection, schedule: Q04DX007 (ip), vehicle: water); 111 % of control (endpoint: median tumor weight (est.), dose: 66.0 mg/kg/injection, schedule: Q07DX005 (ip), vehicle: water); 44 % of control (endpoint: median tumor weight (est.), dose: 70.0 mg/kg/injection, schedule: Q07DX005 (ip), vehicle: water); 45 % of control (endpoint: median tumor weight (est.), dose: 71.1 mg/kg/injection, schedule: Q04DX007 (ip), vehicle: water); 121 % of control (endpoint: median tumor weight (est.), dose: 80.0 mg/kg/injection, schedule: Q04DX007 (ip), vehicle: water); 23 % of control (endpoint: median tumor weight (est.), dose: 80.0 mg/kg/injection, schedule: Q07DX005 (ip), vehicle: suspension in saline). Besides, the T/C is, setting by setting: (endpoint: median tumor weight (est.), dose: 99.0 mg/kg/injection, schedule: Q07DX005 (ip), vehicle: water) 24 % of control; (endpoint: median tumor weight (est.), dose: 105.0 mg/kg/injection, schedule: Q07DX005 (ip), vehicle: water) 41 % of control; (endpoint: median tumor weight (est.), dose: 120.0 mg/kg/injection, schedule: Q04DX007 (ip), vehicle: water) 8 % of control; (endpoint: median tumor weight (est.), dose: 120.0 mg/kg/injection, schedule: Q07DX005 (ip), vehicle: sodium bicarbonate) 37 % of control.
With `CCCCCCOC(CN(C)C)C(Cl)(Cl)Cl` (centres undefined), the T/C is 53 % of control (endpoint: median tumor weight change, dose: 100.0 mg/kg/injection, schedule: Q01DX001 (ip), vehicle: saline with Tween-80); 173 % of control under setting [1]; 68 % of control (endpoint: median tumor weight change, dose: 200.0 mg/kg/injection, schedule: Q01DX001 (ip), vehicle: saline with Tween-80); 81 % of control under setting [2]; 93 % of control (endpoint: median tumor weight change, dose: 400.0 mg/kg/injection, schedule: Q01DX001 (ip), vehicle: saline with Tween-80); 72 % of control under setting [3]. The T/C (endpoint: median tumor weight change, dose: 1000.0 mg/kg/injection, schedule: Q01DX001 (ip), vehicle: saline with Tween-80) is 79 % of control.
For `O=P1(NCCCl)OCCCN1CCCl` (centres undefined), the T/C (endpoint: median tumor weight (est.), dose: 25.0 mg/kg/injection, schedule: Q07DX005 (ip), vehicle: saline) is 26 % of control and 29 % of control; the T/C (endpoint: median tumor weight (est.), dose: 50.0 mg/kg/injection, schedule: Q07DX005 (ip), vehicle: saline) is 11 % of control and 12 % of control; the T/C (endpoint: median tumor weight (est.), dose: 100.0 mg/kg/injection, schedule: Q07DX005 (ip), vehicle: saline) was 6 % of control.
Consider `COC(=O)CC(N)C(=O)O` (centres undefined), for which the T/C is 60 % of control (endpoint: median tumor weight change, dose: 125.0 mg/kg/injection, schedule: Q01DX001 (ip), vehicle: saline) and 61 % of control (endpoint: median tumor weight change, dose: 250.0 mg/kg/injection, schedule: Q01DX001 (ip), vehicle: saline).
Consider `CC(=O)O[C@@H]1[C@@H](O)C2=C3[C@]4(C)[C@@H]1C(C)(C)C(=O)C[C@@H]4[C@]3(O)[C@H](OC(C)=O)[C@@]1(C[C@@H]1C)C2=O`, for which the T/C (endpoint: median tumor weight (est.), dose: 6.25 mg/kg/injection, schedule: Q07DX005 (ip), vehicle: distilled water + Tween-80) was 98 % of control; the T/C under setting [4] is 112 % of control; the T/C (endpoint: median tumor weight (est.), dose: 12.5 mg/kg/injection, schedule: Q07DX005 (ip), vehicle: distilled water + Tween-80) is 151 % of control; the T/C under setting [5] is 117 % of control; the T/C (endpoint: median tumor weight (est.), dose: 25.0 mg/kg/injection, schedule: Q07DX005 (ip), vehicle: distilled water + Tween-80) is 87 % of control; the T/C (endpoint: median tumor weight (est.), dose: 50.0 mg/kg/injection, schedule: Q07DX005 (ip), vehicle: distilled water + Tween-80) is 94 % of control. Further, the T/C under setting [6] is 72 % of control.
Regarding `COC(=O)C(F)C(Br)C(=O)OC` (centres undefined), the T/C is 61 % of control under setting [4]; 87 % of control under setting [5]; 106 % of control under setting [7]; 74 % of control under setting [6]; 77 % of control under setting [8].
For `COc1cc([C@@H]2c3cc4c(c(O)c3C[C@H]3COC(=O)[C@@H]32)OCO4)cc(OC)c1OC`, the T/C was 45 % of control (endpoint: median tumor weight (est.), dose: 2.0 mg/kg/injection, schedule: Q07DX005 (ip), vehicle: saline); 222 % of control (endpoint: median tumor weight (est.), dose: 4.0 mg/kg/injection, schedule: Q07DX005 (ip), vehicle: saline); 86 % of control (endpoint: median tumor weight (est.), dose: 8.0 mg/kg/injection, schedule: Q07DX005 (ip), vehicle: saline); 96 % of control (endpoint: median tumor weight (est.), dose: 16.0 mg/kg/injection, schedule: Q07DX005 (ip), vehicle: saline).
In the case of `O=C(CC(=O)C(F)(F)F)c1csc2ccccc12`, the T/C reads like this: (endpoint: median tumor weight change, dose: 31.25 mg/kg/injection, schedule: Q01DX001 (ip), vehicle: Klucel (hydroxypropylcellulose) (HPC)) 35 % of control; (endpoint: median tumor weight change, dose: 62.5 mg/kg/injection, schedule: Q01DX001 (ip), vehicle: Klucel (hydroxypropylcellulose) (HPC)) 39 % of control; (endpoint: median tumor weight change, dose: 125.0 mg/kg/injection, schedule: Q01DX001 (ip), vehicle: Klucel (hydroxypropylcellulose) (HPC)) 65 % of control.
Regarding `CCN1/C(=C/C=C/C=C/c2sc3ccccc3[n+]2CC)Sc2ccccc21`, the T/C reads like this: (endpoint: median tumor weight (est.), dose: 0.37 mg/kg/injection, schedule: Q07DX006 (ip), vehicle: saline) 77 % of control; (endpoint: median tumor weight (est.), dose: 0.75 mg/kg/injection, schedule: Q07DX006 (ip), vehicle: saline) 233 % of control.
For the compound `CCCCCCCCCCCCCCCCCCCCCC(=O)Nc1ccn(C2OC(CO)C(O)C2O)c(=O)n1` (centres undefined), the T/C under setting [5] was 104 % of control; the T/C under setting [7] is 68 % of control; the T/C under setting [6] is 75 % of control; the T/C under setting [8] is 69 % of control; the T/C under setting [9] was 49 % of control; the T/C under setting [10] was 53 % of control.
In the case of `COc1cccc2c1C(=O)c1c(O)c3c(c(O)c1C2=O)CC(O)(/C(C)=N/NC(=O)CCC(=O)N/N=C(\C)C1(O)Cc2c(O)c4c(c(O)c2C(OC2CC(N)C(O)C(C)O2)C1)C(=O)c1c(OC)cccc1C4=O)CC3OC1CC(N)C(O)C(C)O1` (centres undefined), the T/C reads like this: (endpoint: median tumor weight (est.), dose: 1.5 mg/kg/injection, schedule: Q07DX005 (ip), vehicle: water) 167 % of control; (endpoint: median tumor weight (est.), dose: 6.0 mg/kg/injection, schedule: Q07DX005 (ip), vehicle: water) 45 % of control; (endpoint: median tumor weight (est.), dose: 12.0 mg/kg/injection, schedule: Q07DX005 (ip), vehicle: water) 17 % of control and 40 % of control; (endpoint: median tumor weight (est.), dose: 24.0 mg/kg/injection, schedule: Q07DX005 (ip), vehicle: water) 7 % of control.
Consider `Clc1ccc(CN2COc3c(ccc4cccnc34)C2)cc1Cl`, for which the T/C runs as follows: under setting [7], 113 % of control; under setting [6], 65 % of control; under setting [9], 66 % of control; under setting [10], 96 % of control.
